# Source: PubChem BioAssay AID1117361 (Southern Research Institute, 2015)
# Target: Protein Tat (Human immunodeficiency virus type 1 group M subtype B (isolate HXB2)) (UniProt P04608)
# Assay: inhibitors of Tat binding to TAR RNA, dose response, counter-screen for Vif-APOBEC3G degradation inhibitor project, biochemical, fluorescence polarization, FAM-labeled TAR RNA (AID 1117361)
# Sequence of Protein Tat (Human immunodeficiency virus type 1 group M subtype B (isolate HXB2)) (P04608 whole entry, looked up): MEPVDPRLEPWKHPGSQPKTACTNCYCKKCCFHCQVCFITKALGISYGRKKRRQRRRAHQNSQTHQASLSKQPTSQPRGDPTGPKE
row,SMILES,IC50 [µM]
1,O=S(=O)(c1ccc2nc(-c3ccco3)c(-c3ccco3)nc2c1)N1CCOCC1,44.9
2,O=C(NCCO)c1ccc2nc(-c3ccco3)c(-c3ccco3)nc2c1,7.34
3,CSc1nnc(-c2ccco2)c(-c2ccco2)n1,6.07
4,Cc1cccc(NC2=Nc3ccccc3N3C2=Nc2c(c(C)nn2-c2ccccc2)C3c2ccc(O)c(O)c2)c1 (configuration not stated),43
5,O=C1CC(Nc2ccc(N3CCOCC3)cc2)C(=O)N1Cc1ccccc1 (configuration not stated),15.4
6,CCOC(=O)C1CCCN(C(=O)c2cc(-c3ccco3)nc3ccccc23)C1 (configuration not stated),27.8
7,c1ccc2c(c1)CCCN2Cc1nnc2n1CCCCC2,4.29
8,CCOC(=O)C1=C(c2ccccc2)N=c2s/c(=C\c3ccco3)c(=O)n2C1c1cccs1 (configuration not stated),32.8
9,CC(=O)c1sc(C(=O)O)c(-c2ccco2)c1-c1ccco1,4.86
10,Cc1ccc(-n2c(-c3cc(-c4ccco4)[nH]n3)n[nH]c2=S)c(Br)c1,6.09
11,COc1ccc(NC(=O)N2c3ccc(OC)cc3C(C)=CC2(C)C)cc1,3.29
12,CC1CCN(S(=O)(=O)c2ccc(C(=O)NCc3ccc4c(c3)OCO4)cc2)CC1,95.7
13,COc1ccc(O)c(N)c1,5.5
14,COC(=O)c1cnn2c(C(F)(F)F)cc(-c3ccco3)nc12,68.1
15,Oc1ccc(N=Cc2sc3ccccc3c2Cl)cc1,62.3
16,Cc1ccc(NC(=O)CN(C)C(=O)c2cc(-c3ccco3)nc3ccccc23)cc1,69.2
17,CNc1ccccc(C(=O)/C=C/c2ccccc2OC)c1=O,6.69
18,CCCc1cc(=O)oc2cc(C)c(CN3CCCC3)c(O)c12,16.9
19,CCOC(=O)C1CCN(C(c2cccs2)c2sc3nc(C)nn3c2O)CC1 (configuration not stated),1.96
20,CCC(C)C(NC(=O)[C@@H](NC(=O)c1ccccc1F)C(C)C)C(=O)OC (some centres not stated),30.7
21,O=c1c(-c2cc3ccccc3o2)[n+]([O-])c2ccccc2n1OCc1ccccn1,34.5
22,COC(=O)CCC(=O)OC1(C)C(=O)C=C2C=C3CCCN3C=C2C1=O (configuration not stated),11.1
23,Nc1nc(-c2ccco2)c(-c2ccco2)s1,2.39

row,SMILES,IC50 [µM]
1,CN1c2ccsc2C(O)=C(C(=S)Nc2ccc(F)c(Cl)c2)S1(=O)=O,5.38
2,Cc1cc2c(N)cccc2nn1,2.08
3,CC1CCCCC1NC(=O)COC(=O)c1c2c(nc3ccccc13)/C(=C/c1ccco1)CC2 (configuration not stated),7.58
4,CCOC(=O)c1ccc2c(c1)C1C=CCC1C(C(=O)O)N2 (configuration not stated),11
5,CCN(CC)c1ccc(/C=N/n2c(C)cc(C)cc2=O)cc1,5.27
6,CC(=O)c1ccc2c(c1)C1C=CCC1C(c1ccncc1)N2 (configuration not stated),36.6
7,O=C1Cc2cccc(=O)c(O)c2C(=O)O1,87.7
8,COc1ccc(-n2c(C)cc(C(=O)CSc3nn4c(=O)c(C(C)(C)C)nnc4s3)c2C)cc1,62.7
9,CCN(CC)C(=O)c1ccc(CS(=O)(=O)c2ccc(OC)cc2)o1,2.35
10,Cn1cnnc1SC/C(O)=C(\C#N)c1nc2ccccc2[nH]1,37.4
11,CCOc1cccc(=O)c2c(C)n(CC(=O)c3ccccc3)c(C)c12,18.6
12,N#Cc1c(NC(=O)CSc2ncnc3sccc23)oc(-c2ccco2)c1-c1ccco1,2.52
13,COc1cccc(-n2c(Cc3cc(=O)[nH]c(=O)[nH]3)nnc2SCC(=O)NC2CCCC2)c1,10.1
14,CCOC(=O)c1ccc(CC(=O)c2ccc(O)c(O)c2O)o1,74
15,Cc1cccn2c(=O)c3cc(C(=O)NCc4ccco4)c(=N)n(CCc4ccccc4)c3nc12,11.8
16,O=C(Nc1ccc(F)cc1)C(c1ccccc1)N1CCN(S(=O)(=O)c2ccc3ccccc3c2)CC1 (configuration not stated),1.23
17,CCCCC1=CC2=C(c3ccco3)C(=O)C(C)(OC(=O)c3ccc(OC)cc3)C(=O)C2=CN1CCCCO (configuration not stated),29.3
18,CCCCC1=CC2=CC(=O)C(C)(OC(=O)C3CCCC3)C(=O)C2=CO1 (configuration not stated),53.6
19,O=C(NCCCO)Nc1ccc2nc(-c3ccco3)c(-c3ccco3)nc2c1,2.01
20,COC(=O)CCCC(=O)Nc1c(F)c(F)c(F)c(F)c1F,78.2
21,Cc1cc(C)cc(Nc2ncc3c(n2)CC(c2ccco2)CC3=O)c1 (configuration not stated),42.7
22,O=c1oc2c(O)c(O)cc3c(=O)oc4c(O)c(O)cc1c4c23,1.67
23,O=C(/C=C/c1cccs1)Nc1ccc(Br)cn1,31.4

row,SMILES,IC50 [µM]
1,Cn1nc(-c2ccc(Cl)cc2)c2cc(C(=O)N3CCN(c4ccccc4)CC3)sc21,12.6
2,Cc1ncc(CO)c(/C=N/NC(=O)c2cc(O)c(O)c(O)c2)c1O,32.1
3,NN=C1C(Cl)=C(Cl)C(Cl)=C1Cl,62.9
4,CN(CCC#N)C(=O)COC(=O)c1c2c(nc3ccccc13)/C(=C\c1ccco1)CC2,79.8
5,COCCn1nnnc1C(c1cc2cc(OC)c(OC)cc2[nH]c1=O)N1CCN(c2ccc(O)cc2)CC1 (configuration not stated),94.3
6,COc1ccc(O)c(C(=O)C2c3ccccc3C(=O)N2c2ccc(C)cc2)c1 (configuration not stated),0.303
7,O=C1C=C(N2CC2)c2ccccc2C1=O,80.9
8,O=C(Nc1cc(Cl)cc(Cl)c1)c1coc(=O)c(Br)c1,23.5
9,O=C(/C=C/c1ccco1)NC(=S)Nc1ccccc1N1CCOCC1,25.8
10,CCNC(=O)COC(=O)c1cc(-c2ccco2)nc2ccccc12,8.09
11,COC(=O)Cn1c(CCC(=O)O)ccc1-c1ccccc1,42.3
12,CC(=O)c1ccc2c(c1)C1C=CCC1C(C(=O)O)N2 (configuration not stated),2.47
13,NC1=NC(=O)/C(=C\c2ccco2)S1,6.09
14,Cc1cccc(-n2nc3c(c2NC(=O)c2ccc(Br)o2)CSC3)c1,85.9
15,CNC[C@H](O)c1ccc(O)c(O)c1,11.8
16,Cc1ccc2cc(C(c3nnnn3Cc3ccccc3)N3CCc4ccccc43)c(=O)[nH]c2c1 (configuration not stated),46.4
17,CCOc1cc(N2CCOCC2)c(OCC)cc1NC(C)C(=O)N1CCN(CC)CC1 (configuration not stated),78.8
18,O=C(O)c1ccc(COc2c(F)c(F)c(F)c(F)c2F)o1,90.6
19,CC1(C)Cc2nc3sc(C(=O)O)c(N)c3cc2CS1,28.3
20,COc1cc(C(=O)NCC(c2ccco2)N2CCCC2)ccc1OCc1c(C)noc1C (configuration not stated),93.5
21,CNC(=O)c1ccccc1NC(=O)c1ccc(C)c(S(=O)(=O)N2CCCCC2)c1,0.969
22,C=C(C)C(=O)Nc1cccc(C2=NOC3(C2)C[C@@H](C(N)=O)N(C(=O)CC(c2ccccc2)c2ccccc2)C3)c1 (some centres not stated),29.3
23,COC(=O)/C(=N/Nc1ccccc1C)N1CCCc2ccccc21,29.2

row,SMILES,IC50 [µM]
1,COc1cc(CNc2ccc(O)cc2)cc(Br)c1OCc1ccccc1,34.5
2,O=C(CCCN1C(=O)/C(=C\c2ccco2)SC1=S)Nc1cccc2ccccc12,7.92
3,O=[N+]([O-])c1cc2ccccc2c(O)c1O,56.8
4,CCc1ccc(N2C(=O)NC(=O)/C(=C\C=C\c3ccco3)C2=O)cc1,45
5,O=C(O)CC(C(=O)O)N1C(=O)/C(=C/c2ccc(-c3nc4ccccc4s3)o2)SC1=S (configuration not stated),11.3
6,O=C(Nc1ccn(-c2ccccc2)n1)c1ccccc1Br,30.2
7,Cn1c(N)c(C(=O)COC(=O)C2CCCCC2)c(=O)n(C)c1=O,76.2
8,O=C(OCC1O[C@@H](OC(=O)c2cc(O)c(O)c(O)c2)[C@@H](OC(=O)c2cc(O)c(O)c(O)c2)[C@@H](OC(=O)c2cc(O)c(O)c(O)c2)[C@@H]1OC(=O)c1cc(O)c(O)c(O)c1)c1cc(O)c(O)c(O)c1 (some centres not stated),25.4
9,CCOC(=O)C1CCN(C(=O)COc2ccc(S(=O)(=O)NC(C)C)cc2)CC1,81.8
10,Oc1ccc(-c2cn3c(n2)SCC3)cc1O,71.9
11,C=CCn1c(C)cc(-c2csc(N)n2)c1C,5.49
12,Cc1cc(C)c(C(=O)/C=C/c2ccco2)c(=O)[nH]1,12.1
13,O=C1NC(=O)N(c2ccc(Cl)cc2)C(=O)/C1=C\c1ccc(Sc2nc3ccccc3[nH]2)o1,3.41
14,FC(F)(F)c1cc(-c2ccco2)nc(NCc2ccco2)n1,28.5
15,O=C(Nc1ccc2nc(-c3ccco3)c(-c3ccco3)nc2c1)N1CCCCCC1,3.56
16,O=C(NCCc1c[nH]c2ccccc12)c1ccc(S(=O)(=O)NCc2ccco2)cc1,48.3
17,Oc1cc2c(cc1O)C1c3ccc(O)c(O)c3OCC1(O)C2 (configuration not stated),11.7
18,Oc1ccc(/C=N/N2CCOCC2)c(O)c1O,14
19,Cc1ccc[n+](-c2[nH]c(=O)sc2/C=N/NC(=O)c2ccccc2[O-])c1,22.1
20,O=C(Nc1cccc(C(F)(F)F)c1)c1ccc2nc(-c3ccco3)c(-c3ccco3)nc2c1,6.07
21,Cc1cc(C)c(S(=O)(=O)N2CCCCC2)c(C)c1N(C)S(=O)(=O)c1ccc(Cl)cc1,29
22,Cc1ccc(S(=O)(=O)N2CCC(C(=O)Nc3nnc(-c4ccco4)s3)CC2)cc1,51.1
23,Cc1cc(O)ccc1-c1cnc2ccccc2n1,80.8

row,SMILES,IC50 [µM]
1,Cc1ccc(/C=C/C(=O)Nc2ccc([N+](=O)[O-])c(NC(=O)/C=C/c3ccc(C)o3)c2)o1,7.2
2,C=CCn1c(COc2ccc(F)cc2)nnc1SCC(=O)NC(=O)NCc1ccco1,93.8
3,O=C(O)/C(=C/c1ccco1)NC(=O)c1ccccc1,15.3
4,Cc1cc(NC(=O)Cc2cccs2)no1,55.9
5,O=[N+]([O-])c1cc2oc3c(c2c(C=NCc2ccncc2)c1O)CCCC3,13.4
6,Cc1ccc(NC(=O)COc2ccc(/C=N/NC(=O)CSCc3ccccc3)cc2)cc1,16.3
7,Cc1nn(-c2ccccn2)c2c1C(=O)C(Br)CC2 (configuration not stated),8.82
8,CC1CCN(Cc2c(O)ccc3c2O/C(=C\c2ccco2)C3=O)CC1,4.79
9,O=C1/C(=C/c2ccco2)SC(=S)N1C1CCS(=O)(=O)C1 (configuration not stated),5.05
10,Cc1ccc(C)c(-n2c(Cc3cc(=O)[nH]c(=O)[nH]3)nnc2SC(C)C)c1,77
11,O=C(O)c1ccc(Cl)c2c1C1C=CCC1C(c1ccccn1)N2 (configuration not stated),2.81
12,CCn1c(SC(C)C(=O)O)nc2sc3c(c2c1=O)CCC3 (configuration not stated),70.4
13,Cc1nc2c(=O)[nH]c(=S)[nH]c2[nH]c1=O,13.2
14,O=C(O)c1ccc2c(c1)[C@@H]1C=CC[C@@H]1[C@H](c1ccccn1)N2,7.1
15,CC1(CCl)N([O-])C2=C(CCCC2)[N+]1=O (configuration not stated),44.6
16,N#C/C(=C/c1ccc(N2CCCCCC2)o1)c1cccc(F)c1,98.4
17,Cc1ccc(Cn2c(=S)[nH]c3ccc(N4CCOCC4)cc3c2=O)o1,3.98
18,CCOC(=O)c1sc2nc(CC(=O)OC)nc(NCc3ccco3)c2c1C,16.1
19,O=[N+]([O-])c1cc(CN2CCCC2)c2cccnc2c1O,8.94
20,O=S(=O)(O)c1cc(O)c2c(O)c(N=Nc3cc(Cl)ccc3O)c(S(=O)(=O)O)cc2c1,15.9
